Measurements: patent US20030224038A1, “Cross-linkable phosphonate-containing supramolecular complexes and their use for delivery of therapeutic and diagnostic agents” (priority 2002, published 2003)

What was measured:
[1] = TEM size of n-dodecanephosphonic acid aggregates, metal-free and metallated with iron salts; assay type: physicochemical; conditions: metal-free aggregates, 3×10^−4 molar in 5 mM MES
Description: (§1) An aggregate was prepared using n-dodecanephosphonic acid. Specifically, a 3×10^−4 molar (on average) solution of n-dodecanephosphonic acid was used, which was prepared by adding 17 mg dodecanephosphonic acid to 250 mL of a 5 mM solution of morpholinoethanesulfonic acid (MES) buffer solution. This solution was heated in a boiling water bath for 40-60 minutes. The solution was then cooled and allowed to sit undisturbed for 3 days (following Shulz' procedure (21)). This preparation was used to produce the desired micelles and the reported critical micelle concentration (CMC) was independently confirmed through measurement of the surface tension by means of a Wilhelmy Plate Balance (22). […] It has also been determined that these aggregates are stable over the pH range of 4-6, with minimal structural changes.
The choice of biologically compatible metal ion used to bind to the micelle exterior directly influences the size and the shape of the resulting aggregates. Iron (III) salts are preferred because they are relatively inexpensive, readily available in several simple forms and known to be biologically compatible. However, other metal ions may be used if desired, including, without limitation, Zr (IV), Mg(II), Ca(II), Co(II) and Zn(II) salts. […]

[2] = pH stability of n-dodecanephosphonic acid aggregates; assay type: physicochemical; conditions: minimal structural changes
Description: as §1

[3] = reported value, independently confirmed by surface tension measurement; cited from earlier work
[4] = TEM imaging of negatively stained dodeca-5,7-diynoyl phosphonic acid vesicles (size); assay type: physicochemical
Description: Twice the value of the CMC determined for n-dodecanephosphonic acid (2.94×10^−4 M)^4 was used to assure aggregate formation in these experiments due to the limited amount of the final product. All samples were prepared in the manner described by Schulz, supra, using solutions buffered to a pH of 5.5 with 5 mM MES.
Samples prepared in the above manner were imaged using TEM by negatively staining the samples with 1% uranyl acetate. FIG. 2 is a picture of unpolymerized vesicles of dodeca-5,7-diynoyl phosphonic acid within four days of their initial preparation. It appears from this micrograph that the aggregates are small and relatively spherical compared to the fully saturated aggregates of n-dodecanephosphonic acid prepared as described hereinbelow. The average size of these vesicles is roughly 50 nm in diameter with the sizes of individual aggregates ranging from 4 nm to over 400 nm. […] This behavior was only observed with freshly prepared aggregates prior to their exposure to light. One explanation for this behavior is that it represents an artifact of drying the sample in the presence of the metal stain used to visualize it.
FIG. 3 is a micrograph of the same sample after one week. It is noteworthy that the vesicles are still spherical though they now appear to be smaller and have a more irregular exterior surface. […] Moreover, there was no evidence of the rolled cylinders previously imaged in the fresh aggregate solutions.

[5] = Dissolution in buffered aqueous solution; assay type: physicochemical

Row | Compound | average diameter of aggregates [1] | pH range over which aggregates are stable [2] | critical micelle concentration (CMC) [3] [µM] | average size of aggregates (diameter) ([4]; same sample after one week) [nm] | largest vesicles present in the sample ([4]; same sample after one week) [nm] | average size of vesicles (diameter) ([4]; unpolymerized vesicles, within four days of preparation, pH 5.5, 5 mM MES) | solubility in buffered aqueous solutions [5]
1 | CCCCCCCCCCCCP(=O)(O)O [n-dodecanephosphonic acid] | 20-120 nm | 4-6 | 294 | – | – | – | –
2 | CCCCC#CC#CCCCC(=O)P(=O)(O)O [dodeca-5,7-diynoyl phosphonic acid, Dodeca-5,7-diynoyl phosphonic acid] | – | – | – | ~50 | ≤ 100 | roughly 50 nm | readily dissolves in buffered aqueous solutions to form vesicles
